Columns and labels:
Test in all cases: Kinase selectivity, DiscoverX scanMAX Kinase assay panel (% control)
Type in all cases: binding
[1] = target: T1, kinases of the scanMAX Kinase assay panel (Homo sapiens, UniProt Q15139); conditions: PRKD1; 1 uM
T1 construct: purchased DiscoverX Co. (contract measurement) scanMAX Kinase assay panel
T1 sequence (Q15139 1-912): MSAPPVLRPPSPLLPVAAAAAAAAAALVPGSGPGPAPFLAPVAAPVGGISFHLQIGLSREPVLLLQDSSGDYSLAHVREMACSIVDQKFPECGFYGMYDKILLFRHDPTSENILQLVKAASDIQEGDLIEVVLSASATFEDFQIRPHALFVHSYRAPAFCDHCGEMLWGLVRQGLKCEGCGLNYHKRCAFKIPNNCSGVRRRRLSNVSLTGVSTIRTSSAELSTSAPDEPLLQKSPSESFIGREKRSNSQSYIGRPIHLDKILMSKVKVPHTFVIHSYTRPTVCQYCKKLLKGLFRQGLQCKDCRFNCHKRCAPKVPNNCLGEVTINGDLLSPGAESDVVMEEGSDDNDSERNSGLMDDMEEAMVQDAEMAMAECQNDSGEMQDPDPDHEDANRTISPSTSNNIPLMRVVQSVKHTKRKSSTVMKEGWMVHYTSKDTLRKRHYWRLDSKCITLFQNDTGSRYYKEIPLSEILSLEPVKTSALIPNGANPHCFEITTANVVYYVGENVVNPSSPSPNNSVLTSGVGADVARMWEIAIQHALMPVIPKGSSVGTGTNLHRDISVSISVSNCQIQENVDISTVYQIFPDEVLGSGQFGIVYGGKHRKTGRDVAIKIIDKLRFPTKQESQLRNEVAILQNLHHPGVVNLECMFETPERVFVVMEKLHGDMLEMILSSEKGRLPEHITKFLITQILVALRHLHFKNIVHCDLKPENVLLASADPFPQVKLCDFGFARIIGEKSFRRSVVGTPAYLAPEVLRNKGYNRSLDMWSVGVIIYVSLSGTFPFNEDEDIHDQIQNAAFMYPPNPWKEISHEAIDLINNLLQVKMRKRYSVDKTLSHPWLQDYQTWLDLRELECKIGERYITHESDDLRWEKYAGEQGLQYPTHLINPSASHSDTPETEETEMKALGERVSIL
Summary of the method: (§1)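 Read-out is % control, normalised so a positive-control compound sits at 0% and DMSO at 100%: (test − positive)/(negative − positive)×100. Each kinase received the compound at 1 uM in DMSO. A value below 35% counts as activity.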

[2] = target: T2, kinases of the scanMAX Kinase assay panel (Homo sapiens, UniProt O76039); conditions: CDKL5; 1 uM
T2 construct: purchased DiscoverX Co. (contract measurement) scanMAX Kinase assay panel
T2 sequence (O76039 1-960): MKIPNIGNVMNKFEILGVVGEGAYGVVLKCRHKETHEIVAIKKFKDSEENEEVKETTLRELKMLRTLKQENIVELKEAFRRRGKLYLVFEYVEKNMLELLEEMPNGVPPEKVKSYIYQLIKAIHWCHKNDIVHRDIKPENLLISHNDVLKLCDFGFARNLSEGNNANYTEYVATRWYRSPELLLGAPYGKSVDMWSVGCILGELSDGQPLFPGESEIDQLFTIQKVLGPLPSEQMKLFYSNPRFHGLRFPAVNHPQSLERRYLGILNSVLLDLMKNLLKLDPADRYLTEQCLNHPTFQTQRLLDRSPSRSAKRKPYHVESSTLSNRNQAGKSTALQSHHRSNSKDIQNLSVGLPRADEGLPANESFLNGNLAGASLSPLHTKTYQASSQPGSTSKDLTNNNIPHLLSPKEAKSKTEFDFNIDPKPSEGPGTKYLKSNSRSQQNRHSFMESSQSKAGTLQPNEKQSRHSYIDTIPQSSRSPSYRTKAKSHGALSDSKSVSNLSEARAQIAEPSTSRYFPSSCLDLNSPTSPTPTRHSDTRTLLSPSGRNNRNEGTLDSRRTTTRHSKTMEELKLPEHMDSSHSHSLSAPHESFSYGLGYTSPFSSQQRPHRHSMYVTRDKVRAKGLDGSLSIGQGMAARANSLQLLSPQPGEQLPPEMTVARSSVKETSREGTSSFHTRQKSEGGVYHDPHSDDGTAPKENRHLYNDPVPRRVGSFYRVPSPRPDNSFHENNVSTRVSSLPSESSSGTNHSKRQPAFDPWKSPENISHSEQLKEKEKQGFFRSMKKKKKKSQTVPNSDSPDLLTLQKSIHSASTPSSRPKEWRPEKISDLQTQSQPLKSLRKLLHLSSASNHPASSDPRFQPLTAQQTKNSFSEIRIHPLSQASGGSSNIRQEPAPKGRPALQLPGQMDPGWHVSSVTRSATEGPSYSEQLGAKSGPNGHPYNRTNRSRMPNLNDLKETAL
Summary of the method: as §1

[3] = target: T3, kinases of the scanMAX Kinase assay panel (Homo sapiens, UniProt P54646); conditions: AMPK-alpha2; 1 uM
T3 construct: purchased DiscoverX Co. (contract measurement) scanMAX Kinase assay panel
Summary of the method: as §1

[4] = target: T4, kinases of the scanMAX Kinase assay panel (Homo sapiens, UniProt P20794); conditions: MAK; 1 uM
T4 construct: purchased DiscoverX Co. (contract measurement) scanMAX Kinase assay panel
T4 sequence (P20794 1-623): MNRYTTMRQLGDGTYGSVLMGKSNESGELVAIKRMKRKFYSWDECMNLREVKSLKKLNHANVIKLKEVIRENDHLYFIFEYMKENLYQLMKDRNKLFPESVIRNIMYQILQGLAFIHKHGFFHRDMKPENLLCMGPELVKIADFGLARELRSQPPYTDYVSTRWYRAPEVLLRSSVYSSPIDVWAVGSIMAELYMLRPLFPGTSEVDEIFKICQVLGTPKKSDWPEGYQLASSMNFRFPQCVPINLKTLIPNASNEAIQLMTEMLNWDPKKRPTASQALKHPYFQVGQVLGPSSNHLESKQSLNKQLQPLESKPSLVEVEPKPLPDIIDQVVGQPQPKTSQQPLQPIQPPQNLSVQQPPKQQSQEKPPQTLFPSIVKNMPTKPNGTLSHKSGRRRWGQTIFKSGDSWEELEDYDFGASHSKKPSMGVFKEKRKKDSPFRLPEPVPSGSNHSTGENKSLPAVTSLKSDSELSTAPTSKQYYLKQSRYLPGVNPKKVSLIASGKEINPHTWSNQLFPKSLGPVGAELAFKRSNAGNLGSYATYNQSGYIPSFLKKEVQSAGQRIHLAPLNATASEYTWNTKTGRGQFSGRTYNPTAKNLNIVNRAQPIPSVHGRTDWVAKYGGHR
Summary of the method: as §1

T3 sequence (P54646 whole entry): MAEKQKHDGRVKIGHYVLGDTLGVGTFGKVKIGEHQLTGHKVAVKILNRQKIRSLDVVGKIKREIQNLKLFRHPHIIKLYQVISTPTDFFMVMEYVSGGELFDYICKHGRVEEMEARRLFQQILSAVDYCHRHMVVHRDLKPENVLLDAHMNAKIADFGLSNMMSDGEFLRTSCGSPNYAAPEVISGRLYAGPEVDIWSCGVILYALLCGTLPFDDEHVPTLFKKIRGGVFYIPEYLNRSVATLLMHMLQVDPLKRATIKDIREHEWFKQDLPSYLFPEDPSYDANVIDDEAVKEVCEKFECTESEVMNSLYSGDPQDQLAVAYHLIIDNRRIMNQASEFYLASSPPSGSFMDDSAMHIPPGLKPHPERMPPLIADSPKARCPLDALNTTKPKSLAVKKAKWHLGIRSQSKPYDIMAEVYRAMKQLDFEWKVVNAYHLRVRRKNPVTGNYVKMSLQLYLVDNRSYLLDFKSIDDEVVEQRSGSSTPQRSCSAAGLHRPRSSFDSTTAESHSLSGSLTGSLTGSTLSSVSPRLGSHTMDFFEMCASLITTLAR

Compound `CNc1nc(Nc2ccc(C(=O)N3CCOCC3)cc2OC)nc2[nH]cc(C#N)c12` [Example 1, 2-((2-methoxy-4-(morpholine-4-carbonyl)phenyl)amino)-4-(methylamino)-7H-pyrrolo[2,3-d]pyrimidine-5-carbonitrile] has a remaining binding at 1 µM [1] of 5.7%, a remaining binding at 1 µM [2] of 76% and a remaining binding at 1 µM [3] of 85%. For the same compound, the remaining binding at 1 µM [4] was 95%.

`CC1(Nc2nc(Nc3cnn([C@H]4CCN(C5COC5)C[C@@H]4F)c3Cl)nc3[nH]cc(C#N)c23)CC1` [Example 52, 2-((5-chloro-1-((3S,4S)-3-fluoro-1-(oxetane-3-yl)piperidine-4-yl)-1H-pyrazole-4-yl)amino)((1-methylcyclopropyl)amino)-7H-pyrrolo[2,3-d]pyrimidine-5-carbonitrile] gave a remaining binding at 1 µM [1] of 12%, a remaining binding at 1 µM [2] of 100% and a remaining binding at 1 µM [3] of 9.9%. The remaining binding at 1 µM [4] was 71%.

With `CCNc1nc(Nc2ccc(C(=O)N3CCC(N4CCOCC4)CC3)cc2OC)nc2[nH]cc(C(F)(F)F)c12` [Example 104, (4-((4-(ethylamino)-5-(trifluoromethyl)-7H-pyrrolo[2,3-d]pyrimidine-2-yl)amino)-3-methoxyphenyl)(4-morpholinopiperidine-1-yl)methanone] the remaining binding at 1 µM [1] was 11%, the remaining binding at 1 µM [2] was 100% and the remaining binding at 1 µM [3] was 100%. It also gave a remaining binding at 1 µM [4] of 100%.

From patent US11208412B2 (DAEGU-GYEONGBUK MEDICAL INNOVATION FOUNDATION, priority 2017, dated 2021)
